Assay results taken from paper PMC9674830, “A glutamine-based single α-helix scaffold to target globular proteins” (Nature Communications, 2022).

Target: T1, RAP74-CTD (Homo sapiens, UniProt P35269)
T1 construct: spanning residues 450-517; His6-MBP (with TEV site) (N, cleaved yes); made in house; host or cells: E. coli Rosetta (DE3)pLysS
T1 sequence (P35269 450-517): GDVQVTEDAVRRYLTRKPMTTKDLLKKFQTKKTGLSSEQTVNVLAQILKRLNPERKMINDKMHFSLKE
Test: NMR chemical shift perturbation titration of peptides into 15N RAP74-CTD (KD)
Type: binding
Settings: 15 molar equivalents of peptide, NMR
Description: Recombinant samples with ^15N isotope enrichment of the C-terminal domain of subunit 1 of the general transcription regulator TFIIF (RAP74-CTD), spanning residues 450-517, were obtained as described previously. A codon-optimized synthetic gene cloned in a pDONR221 vector was obtained from GeneArt (Thermo Fisher Scientific, Waltham, MA, USA) and subcloned into a pDEST-His6MBP vector obtained from Addgene. Rosetta (DE3)pLysS competent cells (Novagen, Merck KGaA, Darmstadt, Germany) were grown in MOPS medium with ^15NH4Cl as the only nitrogen source (310 K, induction at OD600 = 0.7, 1 mM IPTG, harvesting 3 h after induction). Soluble fractions of cell lysates from sonication in lysis buffer (50 mM Tris-HCl, 1 M NaCl, 10 mM imidazole, pH 8.0) were purified by IMAC, and fractions containing the His6MBP-TEV-RAP74-CTD fusion were dialyzed at 277 K overnight against cleavage buffer (50 mM Tris-HCl, 200 mM NaCl, 0.5 mM EDTA, pH 8.0) in the presence of TEV protease (50 μg/mL). A second IMAC step was performed and the flow-through containing the RAP-CTD was loaded onto a HiTrap SP HP cation exchange column followed by a size exclusion chromatography step on a Superdex 75 GL 10/300 column equilibrated with NMR buffer (20 mM sodium phosphate, 0.1% trifluoroacetic acid, pH 7.4), both mounted in an Äkta Purifier System (GE Healthcare, Chicago, IL, USA). The sample was concentrated to 100 μM using an Amicon Ultra 15 mL centrifugal filter (Merck KGaA, Darmstadt, Germany).
Before the experiment, both the protein and the peptide were dialyzed (277 K, two dialysis steps) in the same preparation of NMR buffer (20 mM sodium phosphate, 0.1% trifluoroacetic acid, pH 7.4), using a Pur-A-Lyzer (Sigma-Aldrich, Burlington, MA, USA) and a Micro Float-A-Lyzer (Spectrum Laboratories, San Francisco, CA, USA) respectively. The chemical shift assignment of RAP74-CTD was reported previously (BMRB code 27288). Averaged ^1H and ^15N chemical shift perturbations (CSPs) were calculated as:2 ΔδAV=(Δδ1H)^2+1/5Δδ15N^2
Dissociation constants, KD, and averaged CSP amplitude, Δδmax, for δ, δstpl, γ and γstpl peptide binding to RAP74-CTD were obtained by a global fitting (nonlinear regression) of the 10% peaks with the largest averaged CSPs to the following single-site binding model (1:1 stoichiometry):3 Δδ=Δδmax([Protein]+[Peptide]+KD)−([Protein]+[Peptide]+KD)^2−4[Protein][Peptide]/2[Protein]

- CSPs (ppm) induced by peptide on 15N RAP74-CTD, residue 452 (RAP74-CTD residue 452): 0.00133 ppm
- CSPs (ppm) induced by peptide on 15N RAP74-CTD, residue 453 (RAP74-CTD residue 453): 0.00174 ppm
- CSPs (ppm) induced by peptide on 15N RAP74-CTD, residue 454 (RAP74-CTD residue 454): 0.00213 ppm
- CSPs (ppm) induced by peptide on 15N RAP74-CTD, residue 455 (RAP74-CTD residue 455): 0.00368 ppm
- CSPs (ppm) induced by peptide on 15N RAP74-CTD, residue 457 (RAP74-CTD residue 457): 0.000762 ppm
- CSPs (ppm) induced by peptide on 15N RAP74-CTD, residue 458 (RAP74-CTD residue 458): 0.00141 ppm
- CSPs (ppm) induced by peptide on 15N RAP74-CTD, residue 459 (RAP74-CTD residue 459): 0.00114 ppm
- CSPs (ppm) induced by peptide on 15N RAP74-CTD, residue 460 (RAP74-CTD residue 460): 0.00136 ppm
- CSPs (ppm) induced by peptide on 15N RAP74-CTD, residue 461 (RAP74-CTD residue 461): 0.00237 ppm
- CSPs (ppm) induced by peptide on 15N RAP74-CTD, residue 462 (RAP74-CTD residue 462): 0.00141 ppm
- CSPs (ppm) induced by peptide on 15N RAP74-CTD, residue 463 (RAP74-CTD residue 463): 0.00149 ppm
- CSPs (ppm) induced by peptide on 15N RAP74-CTD, residue 464 (RAP74-CTD residue 464): 0.002 ppm
- CSPs (ppm) induced by peptide on 15N RAP74-CTD, residue 465 (RAP74-CTD residue 465): 0.000665 ppm
- CSPs (ppm) induced by peptide on 15N RAP74-CTD, residue 466 (RAP74-CTD residue 466): 0.00337 ppm
- CSPs (ppm) induced by peptide on 15N RAP74-CTD, residue 468 (RAP74-CTD residue 468): 0.000677 ppm
- CSPs (ppm) induced by peptide on 15N RAP74-CTD, residue 469 (RAP74-CTD residue 469): 0.00178 ppm
- CSPs (ppm) induced by peptide on 15N RAP74-CTD, residue 470 (RAP74-CTD residue 470): 0.00475 ppm
- CSPs (ppm) induced by peptide on 15N RAP74-CTD, residue 471 (RAP74-CTD residue 471): 0.006 ppm
- CSPs (ppm) induced by peptide on 15N RAP74-CTD, residue 472 (RAP74-CTD residue 472): 0.003 ppm
- CSPs (ppm) induced by peptide on 15N RAP74-CTD, residue 473 (RAP74-CTD residue 473): 0.00131 ppm
- CSPs (ppm) induced by peptide on 15N RAP74-CTD, residue 474 (RAP74-CTD residue 474): 0.000952 ppm
- CSPs (ppm) induced by peptide on 15N RAP74-CTD, residue 475 (RAP74-CTD residue 475): 0.0011 ppm
- CSPs (ppm) induced by peptide on 15N RAP74-CTD, residue 476 (RAP74-CTD residue 476): 0.00225 ppm
- CSPs (ppm) induced by peptide on 15N RAP74-CTD, residue 477 (RAP74-CTD residue 477): 0.0034 ppm
- CSPs (ppm) induced by peptide on 15N RAP74-CTD, residue 478 (RAP74-CTD residue 478): 0.00316 ppm
- CSPs (ppm) induced by peptide on 15N RAP74-CTD, residue 484 (RAP74-CTD residue 484): 0.00185 ppm
- CSPs (ppm) induced by peptide on 15N RAP74-CTD, residue 487 (RAP74-CTD residue 487): 0.009 ppm
- CSPs (ppm) induced by peptide on 15N RAP74-CTD, residue 488 (RAP74-CTD residue 488): 0.000614 ppm
- CSPs (ppm) induced by peptide on 15N RAP74-CTD, residue 489 (RAP74-CTD residue 489): 0.00261 ppm
- CSPs (ppm) induced by peptide on 15N RAP74-CTD, residue 490 (RAP74-CTD residue 490): 0.002 ppm
- CSPs (ppm) induced by peptide on 15N RAP74-CTD, residue 491 (RAP74-CTD residue 491): 0.002 ppm
- CSPs (ppm) induced by peptide on 15N RAP74-CTD, residue 492 (RAP74-CTD residue 492): 0.003 ppm
- CSPs (ppm) induced by peptide on 15N RAP74-CTD, residue 493 (RAP74-CTD residue 493): 0.00151 ppm
- CSPs (ppm) induced by peptide on 15N RAP74-CTD, residue 494 (RAP74-CTD residue 494): 0.00469 ppm
- CSPs (ppm) induced by peptide on 15N RAP74-CTD, residue 495 (RAP74-CTD residue 495): 0.00146 ppm
- CSPs (ppm) induced by peptide on 15N RAP74-CTD, residue 496 (RAP74-CTD residue 496): 0.00171 ppm
- CSPs (ppm) induced by peptide on 15N RAP74-CTD, residue 497 (RAP74-CTD residue 497): 0.00134 ppm
- CSPs (ppm) induced by peptide on 15N RAP74-CTD, residue 498 (RAP74-CTD residue 498): 0.00172 ppm
- CSPs (ppm) induced by peptide on 15N RAP74-CTD, residue 499 (RAP74-CTD residue 499): 0.000579 ppm
- CSPs (ppm) induced by peptide on 15N RAP74-CTD, residue 500 (RAP74-CTD residue 500): 0.00095 ppm
- CSPs (ppm) induced by peptide on 15N RAP74-CTD, residue 501 (RAP74-CTD residue 501): 0.00151 ppm
- CSPs (ppm) induced by peptide on 15N RAP74-CTD, residue 503 (RAP74-CTD residue 503): 0.000881 ppm
- CSPs (ppm) induced by peptide on 15N RAP74-CTD, residue 504 (RAP74-CTD residue 504): 0.002 ppm
- CSPs (ppm) induced by peptide on 15N RAP74-CTD, residue 505 (RAP74-CTD residue 505): 0.002 ppm
- CSPs (ppm) induced by peptide on 15N RAP74-CTD, residue 506 (RAP74-CTD residue 506): 0.008 ppm
- CSPs (ppm) induced by peptide on 15N RAP74-CTD, residue 507 (RAP74-CTD residue 507): 0.004 ppm
- CSPs (ppm) induced by peptide on 15N RAP74-CTD, residue 509 (RAP74-CTD residue 509): 0.00319 ppm
- CSPs (ppm) induced by peptide on 15N RAP74-CTD, residue 510 (RAP74-CTD residue 510): 0.000691 ppm
- CSPs (ppm) induced by peptide on 15N RAP74-CTD, residue 512 (RAP74-CTD residue 512): 0.00469 ppm
- CSPs (ppm) induced by peptide on 15N RAP74-CTD, residue 513 (RAP74-CTD residue 513): 0.00335 ppm
- CSPs (ppm) induced by peptide on 15N RAP74-CTD, residue 514 (RAP74-CTD residue 514): 0.001 ppm
- CSPs (ppm) induced by peptide on 15N RAP74-CTD, residue 515 (RAP74-CTD residue 515): 0.00145 ppm
- CSPs (ppm) induced by peptide on 15N RAP74-CTD, residue 516 (RAP74-CTD residue 516): 0.00117 ppm
- CSPs (ppm) induced by peptide on 15N RAP74-CTD, residue 517 (RAP74-CTD residue 517): 0.000251 ppm
Sequence: KKPGASLAALQALQALQAAQAAKKY [(P3-7)2, Gln-based single α-helix scaffold peptide]
